{"source": "patent US20220378763A1", "about": "“COMPOUND FOR TREATMENT OF ACUTE INFLAMMATION IN THE MYOCARDIUM” (CALPROTECT AB, priority 2019, published 2022)", "key": {"[1]": {"test_system": "C57BL/6 mice with sepsis induced by bacterial lipopolysaccharide", "assay": "LPS-induced sepsis: plasma cytokines by multiplex assay", "assay_type": "in vivo, mouse", "settings": "24 h after sepsis induction, vs PBS", "description": "General animal care, induction of sepsis and treatments were performed as described under Example 7. We included 5 mice per treatment group. The mice were sacrificed 24 h after sepsis induction and blood was drawn using cardiac puncture with an EDTA 0.5M coated syringe. Blood was spun down at 3000 rpm for 10 minutes and plasma was collected.\nCytokine measurements were performed using the Cytokine & Chemokine 36-Plex Mouse procartaPlex™ P1A (ThermoFischer Scientific) as per manufacturer's instructions. Data are presented as mean±SD."}, "[2]": {"molecular_target": "T1, S100A9 binding to RAGE (Homo sapiens, UniProt P06702)", "T1 sequence (P06702 1-114)": "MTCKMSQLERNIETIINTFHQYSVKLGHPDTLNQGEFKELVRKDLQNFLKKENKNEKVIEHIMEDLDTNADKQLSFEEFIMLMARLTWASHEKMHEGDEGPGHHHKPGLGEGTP", "assay": "Surface plasmon resonance (Biacore 3000): inhibition of S100A9 binding to immobilized RAGE", "settings": "50 nM recombinant human S100A9 over immobilized RAGE; response at late dissociation phase", "from_the_text": "(a) The molecular structure of ABR-238901. (b-c) Surface plasmon resonance measurement of S100A9 binding to immobilized RAGE (b) and TLR4 (c) in the presence of increasing ABR-238901 concentrations. The magnitude of the response for each ABR-238901 concentration (BABR-238901), measured at the late dissociation phase (t 350s), was expressed as percentage of the response in the absence of competitor (BO), and plotted against the concentration of ABR-238901.\nInhibition of S100A9 binding to RAGE and TLR4/MD2 by ABR-238901 was tested by surface plasmon resonance in a Biacore 3000 system (GE Healthcare, Uppsala, Sweden). Briefly, 50 nM of recombinant human S100A9 was injected over immobilized RAGE and TLR4 (2 min at 30 μL/min) in the presence of increasing concentrations of ABR-238901, ranging from 0.0488 to 100 μM. The magnitude of the responses measured at the late dissociation phase (t 350 s) in the presence of ABR-238901 (BABR-238901) were expressed as percentage of response in the absence of competitor (Bo), and plotted against the concentration of ABR-238901 (FIG. 7b-c). The curves were fit to a sigmoidal dose-response model with variable slope in Prism GraphPad for calculation of IC50."}, "[3]": {"test_system": "C57BL/6 mice with permanent coronary artery ligation", "assay": "MI by permanent coronary artery ligation, long-term (21 days) treatment: echocardiography and scar size", "assay_type": "in vivo, mouse", "settings": "treatment for 21 days", "description": "Ultrasound measurements were performed at day −1 (baseline), 7, and 21 to assess cardiac function using a Vevo 770 echocardiographic imaging system with a 707B probe (VisualSonics, Toronto, Canada). In selected experiments, additional assessment was performed on days 3 and 14. The mice were anesthetized using 1-3% isoflurane and hair was carefully removed using depilatory cream. To maintain body temperature, the mice were placed in supine position on a heated surface (37° C.). Two-dimensional M-mode images were recorded in the parasternal short-axis view at the mid-papillary level. Five complete cardiac cycles were traced to calculate fractional shortening, ejection fraction, left ventricular systolic volume, and left ventricular diastolic volume by using the VisualSonics software.\nAt 21 days after MI, the hearts were perfused with ice cold PBS and excised under ketamine/xylazine anesthesia. Subsequently the hearts were fixed in 4% (w/v) paraformaldehyde and embedded in paraffin. The hearts were sectioned transversely from the apex to the level of the suture, and 6 μm thick sections were collected at 390 μm intervals. The sections were mounted on glass slides and stained with Van Gieson or Masson trichrome stain for quantitative analysis of scar size. Alarmin S100A8/A9 was detected using mouse anti-S100A8/A9 IgG1 antibody (Abcam, ab 130234, 1:100 dilution, O/N 4° C.). Goat anti-mouse IgG1 HRP-conjugated secondary antibody (Abcam, ab 97240, 1 h RT) was used and the staining was developed with ImmPACT™ DAB (Vector, SK-4105) chromogen as substrate. The slides were subsequently scanned using an Aperio digital pathology slide scanner (Leica Biosystems), and images were captured with the ImageScope software (Leica Biosystems). Left ventricle area and the infarcted area were measured on each section by using the BioPix iQ 2.5.0 software (Biopix AB). The size of the post-MI myocardial scar was expressed as percentage of the left ventricle volume below the coronary ligature.\nMI induction and other procedures were carried out as outlined in Example 2. For long-term experiments of up to 21 days, a daily dose of 30 mg/Kg ABR-238901 was diluted in PBS and administered by daily i.p. injections for the first 3 days post-MI until the mice recovered and started to drink normally, and thereafter p.o. ad-libitum in meglumine buffer (FIG. 4A). Adequate treatment dosage was ensured by closely monitoring daily fluid intake."}}, "data": [{"molecule": "COc1ncc(S(=O)(=O)Nc2cncc(Cl)c2O)cc1Br", "note": "[ABR-238901, 5-bromo-N-(5-chloro-4-hydroxypyridin-3-yl)-6-methoxypyridine-3-sulfonamide]", "values": [{"measurement": "Plasma level of GM-CSF", "setting": "[1]", "value": "decreased"}, {"measurement": "Plasma level of IFN-γ", "setting": "[1]", "value": "decreased"}, {"measurement": "Plasma level of IL17-A", "setting": "[1]", "value": "decreased"}, {"measurement": "Plasma level of IL-1b", "setting": "[1]", "value": "decreased"}, {"measurement": "Plasma level of IL-6", "setting": "[1]", "value": "decreased"}, {"measurement": "Plasma level of IL-22", "setting": "[1]", "value": "decreased"}, {"measurement": "Plasma level of LIF", "setting": "[1]", "value": "decreased"}, {"measurement": "Plasma level of LIX", "setting": "[1]", "value": "decreased"}, {"measurement": "Plasma level of MCP-1", "setting": "[1]", "value": "decreased"}, {"measurement": "IC50", "setting": "[2]", "value": 2.7, "unit": "µM"}, {"measurement": "Cardiac function (left ventricular ejection fraction)", "setting": "[3]; 30 mg/Kg i.p. 3 days then p.o., echocardiography", "value": "progressive deterioration"}, {"measurement": "Size of the myocardial scar", "setting": "[3]; 21 days", "value": "increased"}, {"measurement": "EDV vs controls", "setting": "[3]; day 21", "value": "increased"}, {"measurement": "ESV vs controls", "setting": "[3]; day 21", "value": "increased"}]}]}
